Emax and IC50 data for 13 compounds are collected here from patent publication US11524938B2, “Aromatic sulfonamide derivatives” (Bayer Pharma Aktiengesellschaft, priority 2016, dated 2022).

The assay deals with T1, human P2X4 (Homo sapiens, UniProt Q99571).
T1 sequence (Q99571 1-388): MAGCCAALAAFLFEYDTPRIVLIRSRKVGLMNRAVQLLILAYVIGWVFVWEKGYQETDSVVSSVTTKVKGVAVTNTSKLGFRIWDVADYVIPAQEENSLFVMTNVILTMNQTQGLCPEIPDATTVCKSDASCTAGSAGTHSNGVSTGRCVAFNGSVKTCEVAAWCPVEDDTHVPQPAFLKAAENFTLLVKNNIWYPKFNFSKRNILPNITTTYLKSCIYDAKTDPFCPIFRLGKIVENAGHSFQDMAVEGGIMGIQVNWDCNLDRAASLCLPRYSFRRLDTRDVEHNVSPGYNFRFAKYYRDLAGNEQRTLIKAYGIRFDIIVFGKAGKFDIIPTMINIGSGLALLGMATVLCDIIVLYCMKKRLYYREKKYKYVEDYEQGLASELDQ
The assay can be described thus: Human P2X4 HEK Cell FLIPR Assay. The settings on record: agonist Bz-ATP at EC80; for Emax: HEK293, HEK293 cells, percentage of maximal inhibition, read-out: Human P2X4 HEK Cells (FLIPR Assay) avg Efficacy [%]; for IC50: HEK293 cells, individual values listed where some fall outside detection range. Type of assay: cell-based. Put shortly: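 Calcium flux read by FLIPR for 120 sec after Bz-ATP challenge at EC80 (established each assay day), following 30 min room-temperature compound preincubation in dye-loaded stable human P2X4 HEK293 cells. Peak RFU over basal normalized to agonist control; IC50, maximal inhibition and Hill coefficient from triplicate means.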

For the compound `NS(=O)(=O)c1cc(NC(=O)Cc2ccccc2C(F)(F)F)ccc1-c1cncc(C(F)(F)F)c1` [Example 304, N-{3-Sulfamoyl-4-[5-(trifluoromethyl)pyridin-3-yl]phenyl}-2-[2-(trifluoromethyl)phenyl]acetamide], the Emax worked out at 65% and the IC50 (in general, the point on the concentration scale where inhibition reaches its midpoint) worked out at 73 nM.

Consider `NS(=O)(=O)c1cc(NC(=O)Cc2ccccc2Cl)cnc1-c1cncc(C(F)(F)F)c1` [Example 305, 2-(2-Chlorophenyl)-N-[3-sulfamoyl-5′-(trifluoromethyl)-2,3′-bipyridin-5-yl]acetamide], for which the Emax was determined as 49% and the IC50 came to 21 nM.

With `NS(=O)(=O)c1cc(NC(=O)Cc2ccccc2Cl)ccc1-c1cnc(C(F)(F)F)nc1` [Example 306, 2-(2-Chlorophenyl)-N-{3-sulfamoyl-4-[2-(trifluoromethyl)pyrimidin-5-yl]phenyl}acetamide], the Emax is 80% and the IC50 was 278 nM.

Consider `NS(=O)(=O)c1cc(NC(=O)Cc2ccccc2Cl)ccc1-c1cncc(OC(F)(F)F)c1` [Example 307, 2-(2-Chlorophenyl)-N-{3-sulfamoyl-4-[5-(trifluoromethoxy)pyridin-3-yl]phenyl}acetamide], for which the Emax worked out at 62% and the IC50 is 115 nM.

As to `NS(=O)(=O)c1cc(NC(=O)Cc2ccccc2Cl)ccc1-c1cnc(C2CC2)nc1` [Example 308, 2-(2-Chlorophenyl)-N-[4-(2-cyclopropylpyrimidin-5-yl)-3-sulfamoylphenyl]acetamide], the Emax turned out to be 91% and the IC50 is 64 nM.

As to `CCOc1ncc(-c2ccc(NC(=O)Cc3ccccc3Cl)cc2S(N)(=O)=O)cn1` [Example 309, 2-(2-Chlorophenyl)-N-[4-(2-ethoxypyrimidin-5-yl)-3-sulfamoylphenyl]acetamide], the Emax was found to be 93% and the IC50 stood at 317 nM.

Turning to `CC(C)Nc1ncc(-c2ccc(NC(=O)Cc3ccccc3Cl)cc2S(N)(=O)=O)cn1` [Example 310, 2-(2-Chlorophenyl)-N-{4-[2-(propan-2-ylamino)pyrimidin-5-yl]-3-sulfamoylphenyl}acetamide], the Emax amounted to 59% and the IC50 came to 86 nM.

Turning to `CC(C)Oc1ncc(-c2ccc(NC(=O)Cc3ccccc3Cl)cc2S(N)(=O)=O)cn1` [Example 311, 2-(2-Chlorophenyl)-N-{4-[2-(propan-2-yloxy)pyrimidin-5-yl]-3-sulfamoylphenyl}acetamide], the Emax was found to be 104% and the IC50 worked out at 285 nM.

Consider `CCNc1ncc(-c2ccc(NC(=O)Cc3ccccc3Cl)cc2S(N)(=O)=O)cn1` [Example 312, 2-(2-Chlorophenyl)-N-{4-[2-(ethylamino)pyrimidin-5-yl]-3-sulfamoylphenyl}-acetamide], for which the Emax was determined as 69% and the IC50 stood at 37 nM.

As to `Cc1ncc(-c2ccc(NC(=O)Cc3ccccc3Cl)cc2S(N)(=O)=O)cn1` [Example 313, 2-(2-Chlorophenyl)-N-[4-(2-methylpyrimidin-5-yl)-3-sulfamoylphenyl]acetamide], the Emax was 82% and the IC50 stood at 713 nM.

Turning to `CCCNc1ncc(-c2ccc(NC(=O)Cc3ccccc3Cl)cc2S(N)(=O)=O)cn1` [Example 314, 2-(2-Chlorophenyl)-N-{4-[2-(propylamino)pyrimidin-5-yl]-3-sulfamoylphenyl}-acetamide], the Emax was found to be 83% and the IC50 was 27 nM.

Consider `NS(=O)(=O)c1cc(NC(=O)Cc2ccccc2Cl)ccc1-c1cnc(NCC(F)(F)F)nc1` [Example 315, 2-(2-Chlorophenyl)-N-(3-sulfamoyl-4-{2-[(2,2,2-trifluoroethyl)amino]pyrimidin-5-yl}phenyl)acetamide], for which the Emax was 81% and the IC50 is 34 nM.

On to `NS(=O)(=O)c1cc(NC(=O)Cc2ccccc2Cl)ccc1-c1cnc(OC2CCC2)nc1` [Example 316, 2-(2-Chlorophenyl)-N-{4-[2-(cyclobutyloxy)pyrimidin-5-yl]-3-sulfamoylphenyl}acetamide], for which the Emax stood at 86% and the IC50 is 362 nM.
